“Also recorded” adds a separate entry of the source.

One assay deals with apSyN. As to the kind of experiment: Plated ligand assay, apSyN (AP-SynNotch) cells with UAS:H2B-mCherry reporter. Type of assay: cell-based. Particulars: for reporter (mCherry) activation by plated ligand: apSyN/AP-SynNotch cells with or without BirA-ER (BirA-KDEL). The text has this: In order to determine if the apSyN could undergo predicted signaling mechanics of extracellular binding and intracellular domain release based on the presence of the PTM, we used an established Notch signaling assay23 (FIG. 2A). […] We instead interrogated the signaling capabilities by coating tissue culture wells with an anti-Biotin antibody that is specific for biotinamide24.
Next to be evaluated were the signaling properties of AP-SynNotch. Here, the activity of the receptor in response to different ligands was compared in cells with and without BirA-KDEL. Using a receptor containing a Gal4-VP64 ICD, the signaling activity of AP-SynNotch was measured in transfected HEK293 cells containing a stably-integrated reporter gene (UAS:H2B-mCherry). In order to stimulate receptor activation, transfected cells were grown on culture surfaces containing immobilized ligands, and reporter expression levels were measured the next day using flow cytometry (FIG. 11D).

A further assay relates to anti-Biotin ligand. Kind of assay: Coculture luciferase assay, apSyN/BirA receiver cells with anti-Biotin ligand sender cells, soluble competitors. The format is cell-based. The note with it: different concentrations of the molecules in coculture. The protocol: To examine this behavior more quantitatively, we used an established luciferase-based coculture assay28. Receptor cells were transfected with a luciferase reporter plasmid, and ligand expressing cells were added the next day. Finally cells were lysed after one day of coculturing to examine the luminescence due to luciferase expression (FIG. 3C).
We also saw a similar ability to control activation with small molecules in this coculture assay. […] We sought to develop an inhibition method that is specific for this pathway and therefore allow for additional control of signaling without disrupting native pathways. […] We used the previously established coculture assay while culturing cells in different concentrations of the described molecules and then analyzed the corresponding luciferase expression.
The luciferase assay used for coculture studies was adapted from Gordon et al28. Synthetic Notch receiver cells were reverse transfected in a 96-well plate (50 k cells per well) with 9.9 ng of UAS:Firefly-Luciferase plasmid and 0.1 ng Nanoluc plasmid per well. 24 hr post-transfection, 80 k sender cells were added to each well. 48 hr post-transfection, cells were lysed (Nano-Glo Dual-Luciferase Reporter Assay System, Promega) and the luminescence was found following the manufacturer's instructions. Each well was normalized to the luminescence output of Nanoluc (transfection control).
Tight-regulation is a requirement of cell-engineered systems in biomedical applications, and such control can be achieved by combining genetic strategies with external drug-control. Thus, it was next sought to design exogenous molecules that could be combined with the present encodable components in order to achieve versatile “chemogenetic” control. Soluble binding proteins can be used to block trans-cellular interactions between endogenous Notch receptors and ligands. It was tested whether soluble biotin-derived compounds could be used to competitively interact between our synthetic ligand and receptor (FIG. 12G). […] In addition to their selective recognition by Anti-Biotinamide, the cell-impermeant nature of biocytin and bis-biotinamide offer the advantageous feature of limiting disruption/inhibition to cell-surface presented components.
The luciferase assay used for coculture studies was adapted from Gordon et al^59. Synthetic Notch receiver cells were reverse transfected in a 96-well plate (50 k cells per well) with 9.9 ng of UAS:Firefly-Luciferase plasmid and 0.1 ng Nanoluc plasmid per well. […] 48 hr post-transfection, cells were lysed (Nano-Go Dual-Luciferase Reporter Assay System, Promega) and the luminescence was found following the manufacturer's instructions. Each well was normalized to the luminescence output of Nanoluc (transfection control).

The subject of a further assay is antiBiot synthetic Notch. Kind of assay: Plated ligand assay, antiBiot synthetic Notch (Anti-Biotinamide SynNotch) cells. Particulars: soluble ligand introduced at the time of plating.
The next assay relates to avidin. The note with it: avidin-based systems; cited from earlier work.
The subject of assay [1] is anti-FITC Synthetic Notch. Kind of assay: Coculture of anti-FITC Synthetic Notch cells and anti-biotin ligand cells with biotin-FITC linker (Luciferase reporter). The format is cell-based. Particulars: FIG. 20. The text has this:
FIG. 20 depicts graphs in which the x-axis of the plot is the biotin-FTC concentration, the y-axis is the extent of signaling (via a Luciferase reporter). The legend gives two different sender-cells used in the coculture—one with the anti-biotin ligand, and one without.
Described herein is the use of biotin-FITC as a small-molecule linker with the ability to induce trans-cellular signaling. In this coculture system, a first group of cells expressed an anti-FITC Synthetic Notch, which can bind one end of the biotin-FITC, and a second group of cells expressed an anti-biotin ligand (described in other Examples herein), which binds the other end.

A further assay concerns scFab-Gal4 and AP-VP64. Kind of assay: UAS:H2B-mCherry reporter cells with scFab-Gal4, AP-VP64 and BirA, treated with soluble biotinamides. Particulars: varying concentrations, compared with biocytin. The format is cell-based. The procedure: Reporter HEK293 cells with an integrated UAS:H2B-mCherry construct were transfected with a construct containing constitutive expression of AP-VP64 and AntiBiotinamide-scFAB-Gal4. The cells were cotransfected with a construct containing Citrine-HA-BirA. At the time of transfection, samples were incubated with different concentrations of Biocytin and Biotin-cadaverine. Samples were measured the next day with flow cytometry, gating for Citrine expression.
Lastly, it was asked whether intracellular protein complexes could be disrupted using exogenously applied biotinamide. To test this possibility, cells were treated with biocytin as well as biotin-cadaverine, a membrane-permeant biotinamide derivative (6). To measure the disruption of intracellular complexes, BirA was co-expressed alongside scFab-Gal4 and AP-VP64 in UAS:H2B-mCherry reporter cells, and the extent of mCherry expression was quantified from cells treated with varying concentrations of biocytin and biotin-cadaverine (FIG. 18A).

Assay [2] concerns Anti-Biotinamide SynNotch. Kind of assay: Anti-Biotinamide SynNotch cells on TCO-BSA coated wells with added biotin-tetrazine, flow cytometry. Type of assay: cell-based. The text has this:
(FIG. 13A). Receptors that are specific to biotinamide process inputs dependent on the biotinylation state of the ligand. (FIG. 13B). Anti-Biotinamide SynNotch expressing cells activate to both biotin-based and desthiobiotin-based substrates. The cells activate with slightly less adsorbed biotin than desthiobiotin. (FIG. 13C). Cells expressing Anti-Biotinamide SynNotch were cocultured with cells transfected with an AP-tagged cell surface ligand with or without BirA, or non-transfected cells. (FIG. 13D). Biotin-tetrazine (4) is a bispecific molecule that will bind to the Anti-Biotinamide antibody fragment and TCO-(5), which is conjugated to BSA. (FIG. 13E). Anti-Biotinamide SynNotch expressing cells cultured on TCO-conjugated BSA will bind to exogenously added biotin-tetrazine. (FIG. 13F). Anti-Biotinamide SynNotch expressing cells were cultured on wells coated with TCO-BSA and one day later, biotin-tetrazine was added at different concentrations to the wells. At two days after plating, cellular fluorescence was analyzed with flow cytometry.
In an effort to develop synthetic agonists, a bioorthogonal chemical ligation was also exploited in order to convert a soluble biotin derivative into an immobilized (signaling competent) ligand in situ. […]
A general note: In flow cytometry, cells or beads pass a laser one at a time.

For assay [3] the following is noted: free biotin versus biotin with an amide linker; cited from earlier work.

Description for antiBiot synthetic Notch: We first asked if this synthetic receptor cell line could activate to various ligands coated on a 96 well plate.
Nontreated 96-well plates were coated with Fibronectin (5 ng/mL) and plated ligand in 50 μL PBS for 1-hr. Initial experiments were done with a serial dilution of ligand to determine working concentrations. The wells were rinsed three times with 200 μL PBS, and 40 k synthetic Notch receiver cells were plated in each well. Receptor activation was measured 24 hr post-plating via fluorescence microscopy or flow cytometry.
Cells analyzed with an Attune NxT flow cytometer and were gated for living cells by scatter detection. The percent activation was determined by calculating the percentage of cells with mCherry expression levels above a certain threshold.
Nontreated 96-well plates were coated with Fibronectin (5 ng/mL) and plated ligand in 50 μL PBS for 1 hr. […] Receptor activation was measured 24 hr post-plating via fluorescence microscopy or flow cytometry.
Flow Cytometry Cells analyzed with an Attune NxT flow cytometer and were gated for single cells by scatter detection (FIGS. 19A-19C). Output files were analyzed with a custom MATLAB (Mathworks) script. The percent activation was determined by calculating the percentage of cells with mCherry expression levels above a determined threshold using the non-transfected control as a guide.

Take `C[C@H](NC(=O)Cc1cc(F)cc(F)c1)C(=O)N[C@H](C(=O)OC(C)(C)C)c1ccccc1` [DAPT]: the “effect of Notch pathway (γ-secretase) inhibitor on mCherry expression” value in the assay on apSyN (plated anti-Biotin or anti-myc antibody) is “ablated mCherry expression in all cases”. Regarding `N[C@@H](CCCCNC(=O)CCCC[C@@H]1SC[C@@H]2NC(=O)N[C@@H]21)C(=O)O` [biocytin], the “inhibition of cell signaling (luciferase) by competitive binding to the ligand” value (“inhibition of cell signaling” below) in the assay with anti-Biotin ligand is listed as “able to inhibit cell signaling to some degree; also recorded: act as inhibitors of signaling”. For the same molecule, the “concentration at which activation was lowered” value with antiBiot synthetic Notch stood at 3 µM.

As to `O=C(O)CCCC[C@@H]1SC[C@@H]2NC(=O)N[C@@H]21` [biotin], in the assay on anti-Biotin ligand, the “inhibition of cell signaling” value is reported as “limited impact on cell signaling”. With `C[C@@H]1NC(=O)N[C@@H]1CCCCCC(=O)O` [desthiobiotin], the “binding constant, fold less than biotin” value in the assay on avidin is 106 fold. On to “Neutravidin: adsorbed biotin-binding protein”, for which the “reporter (mCherry) activation by plated ligand” value is reported as “able to activate apSyN cells, but has decreased activation at higher concentrations” with apSyN and “can activate the biotinylated receptor” in the assay with apSyN (listed as neutravidin).

Regarding biotin-FITC, the “signaling capacity versus concentration” value in assay [1] is “low concentrations do not induce signaling, and high concentrations lead to lower signaling”. As for biotin-cadaverine, the “inhibition of intracellular biotin-dependent reporter (mCherry) expression” value with scFab-Gal4 and AP-VP64 is listed as “more sensitive”; with scFab-Gal4 and AP-VP64 (listed as Biotin-cadaverine) it was “effective competitive inhibitor”.

As to biotin-tetrazine, in assay [2] (biotin-tetrazine added one day after plating on TCO-BSA), the reporter activation result is listed as “able to activate reporter expression only when cultured with biotin-tetrazine”. Further, the “inhibition of receptor activation” value in assay [2] (high concentrations of biotin-tetrazine) was “inhibited with high concentrations”. Consider bis-biotinamide, for which the “inhibition of cell signaling” value in the assay on anti-Biotin ligand is reported as “more potent inhibition”; in the assay with anti-Biotin ligand (listed as Bis-biotinamide) it was “increased ability to inhibit cell activation; also recorded: inhibits more effectively”.

B1: biotinamide-specific antibody: antibody from which the anti-biotinamide single chain variable fragment was developed (antibody)
heavy: EVQLQQSGAELVKPGASVKLSCTSSGFNNKDTFFQWVKQRPEEGLEWIGRIDPANGFTKYDPKFQGKATITVDTSSNTAYLQLNSLTSEDTALYYCTRWDTYGAAWFAYWGQGTLVTVSAAKTTPPSVYPLAPGSAAQTNSMVTLGCLVKGYFPEPVTVTWNSGSLSSGVHTFPAVLQSDLYTLSSSVTVPSSTWPSETVTCNVAHPASSTKVDKKIVPR
light: DIQMTQSPASLSASVGETVTITCRASGNIHNYLSWFQQKQGKSPQLLVYSAKTLADGVPSRFSGSGSGTQYSLKINSLQPEDFGTYYCQHFWSSIYTFGGGTKLEIKRADAAPTVSIFPPSSEQLTSGGASVVCFLNNFYPKDINVKWKIDGSERQNGVLNSWTDQDSKDSTYSMSSTLTLTKDEYERHNSYTCEATHKTSTSPIVKSFNRNEC
B1: the binding specificity result in assay [3] was “does not bind to free biotin but binds to biotin with an amide linker”.

Source of the values: patent US11672828B2, “Cellular receptors and uses thereof” (TRUSTEES OF BOSTON UNIVERSITY, priority 2020, dated 2023).
